Measured values as given in BindingDB's records for doi:10.1007/pl00005131 (UniversitÄT WÜRzburg, 1998).
pKi: −log10 of the molar value.

Assays:
[1] = biological target: T1, Adenosine receptor A3 (Homo sapiens, UniProt P0DMS8)
T1 sequence (P0DMS8 whole entry): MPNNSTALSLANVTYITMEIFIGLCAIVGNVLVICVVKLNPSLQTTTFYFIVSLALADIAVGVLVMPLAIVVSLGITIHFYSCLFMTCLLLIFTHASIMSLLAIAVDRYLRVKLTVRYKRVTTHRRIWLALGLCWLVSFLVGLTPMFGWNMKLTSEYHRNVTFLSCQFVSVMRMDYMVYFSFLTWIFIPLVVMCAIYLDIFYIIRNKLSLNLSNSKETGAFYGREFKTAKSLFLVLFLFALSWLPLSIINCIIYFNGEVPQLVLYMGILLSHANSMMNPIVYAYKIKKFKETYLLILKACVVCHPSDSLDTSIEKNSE

[2] = biological target: Adenosine receptor A2a (Homo sapiens, UniProt P29274)
Chain of Adenosine receptor A2a (P29274 whole entry): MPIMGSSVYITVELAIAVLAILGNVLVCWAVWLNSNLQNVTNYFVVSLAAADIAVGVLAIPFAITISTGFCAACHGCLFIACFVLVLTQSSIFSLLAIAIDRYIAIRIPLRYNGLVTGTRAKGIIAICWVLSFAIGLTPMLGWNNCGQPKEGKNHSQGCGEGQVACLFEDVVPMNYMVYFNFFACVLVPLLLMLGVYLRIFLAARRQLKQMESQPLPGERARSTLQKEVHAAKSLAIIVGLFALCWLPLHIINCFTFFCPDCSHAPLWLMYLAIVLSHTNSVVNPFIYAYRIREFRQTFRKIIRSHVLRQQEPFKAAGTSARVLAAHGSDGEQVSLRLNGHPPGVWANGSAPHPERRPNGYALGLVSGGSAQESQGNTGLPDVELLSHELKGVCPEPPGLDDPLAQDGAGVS

| Structure (SMILES) | pKi [1] | pKi [2] |
| --- | --- | --- |
| CNC(=O)[C@H]1O[C@@H](n2cnc3c(NCc4ccc(N)cc4)ncnc32)[C@H](O)[C@@H]1O [AB-MECA] | 7.67 | – |
| Nc1nc2ccc(Cl)cc2c2nc(-c3ccco3)nn12 | 7.29 | – |
| CNC(=O)[C@H]1O[C@@H](n2cnc3c(NCc4ccc(N)c(I)c4)ncnc32)[C@H](O)[C@@H]1O | – | 6.33 |
| OC[C@H]1O[C@@H](n2cnc3c(NC4CCCC4)ncnc32)[C@H](O)[C@@H]1O | 7.37 | 6.10 |
